Experiment [1] deals with HL-60. Put plainly: Compound was tested in vitro for percent EBV0EA-inducing activity in […] cells at concentration 10e-9 M. Type of experiment: functional, Homo sapiens.
The target of experiment [2] is T1, Protein kinase C alpha type (Homo sapiens, UniProt P17252). As to the kind of experiment: Displacement of 3[H]PDBu from Protein kinase C alpha C1b domain.
Experiment [3] deals with HL-60. Put plainly: Compound was tested in vitro for percent EBV0EA-inducing activity in […] cells at concentration 10e-7 M. It is filed as functional, Homo sapiens.
The test system of experiment [4] is HL-60. Put plainly: Compound was tested in vitro for its ability to induce superoxide generation in HL-60 cells at concentration 10e-9 M. Type of experiment: functional, Homo sapiens.
For experiment [5], the target named is T2, Protein kinase C epsilon type (Homo sapiens, UniProt Q02156).
T2 sequence (Q02156 whole entry): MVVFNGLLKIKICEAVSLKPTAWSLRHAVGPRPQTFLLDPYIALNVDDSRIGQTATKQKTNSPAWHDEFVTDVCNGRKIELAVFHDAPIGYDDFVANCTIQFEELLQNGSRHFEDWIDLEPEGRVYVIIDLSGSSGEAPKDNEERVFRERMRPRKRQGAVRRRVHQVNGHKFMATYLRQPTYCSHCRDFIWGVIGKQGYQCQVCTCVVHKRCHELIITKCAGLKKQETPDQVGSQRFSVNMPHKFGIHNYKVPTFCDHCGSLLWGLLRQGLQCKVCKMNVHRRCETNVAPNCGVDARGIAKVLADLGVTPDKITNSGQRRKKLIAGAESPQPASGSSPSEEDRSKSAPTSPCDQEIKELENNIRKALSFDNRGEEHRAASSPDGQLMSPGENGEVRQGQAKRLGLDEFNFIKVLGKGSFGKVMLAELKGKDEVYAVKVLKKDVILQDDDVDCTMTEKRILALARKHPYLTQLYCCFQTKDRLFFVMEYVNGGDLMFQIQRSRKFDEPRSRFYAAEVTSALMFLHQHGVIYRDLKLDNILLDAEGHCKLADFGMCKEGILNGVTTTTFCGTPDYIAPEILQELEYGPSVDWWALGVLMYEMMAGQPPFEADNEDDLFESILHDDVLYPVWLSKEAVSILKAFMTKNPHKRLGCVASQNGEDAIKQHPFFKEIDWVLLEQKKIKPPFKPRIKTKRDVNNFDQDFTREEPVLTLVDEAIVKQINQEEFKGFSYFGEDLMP
As to the kind of experiment: Displacement of 3[H]PDBu from Protein kinase C epsilon C1a domain.

For experiment [6], the target named is T3, Protein kinase C beta type (Homo sapiens, UniProt P05771). Put plainly: Displacement of 3[H]PDBu from Protein kinase C beta C1b domain.
In experiment [7] the target is T4, Protein kinase C delta type (Homo sapiens, UniProt Q05655). As to the kind of experiment: Displacement of 3[H]PDBu from Protein kinase C delta C1a domain.
Experiment [8] deals with T5, Protein kinase C eta type (Homo sapiens, UniProt P24723). Put plainly: Displacement of 3[H]PDBu from Protein kinase C eta C1b domain.
For experiment [9], the system named is HL-60. As to the kind of experiment: Compound was tested in vitro for its ability to induce superoxide generation in HL-60 cells at concentration 10e-6 M. It is filed as functional, Homo sapiens.
The target of experiment [10] is T4, Protein kinase C delta type. Put plainly: Displacement of 3[H]PDBu from Protein kinase C delta C1b domain.
In experiment [11] the test system is HL-60. Put plainly: Compound was tested in vitro for its ability to induce superoxide generation in HL-60 cells at concentration 10e-8 M. It is filed as functional, Homo sapiens.
For experiment [12], the target named is Protein kinase C theta type (Homo sapiens, UniProt Q04759). As to the kind of experiment: Displacement of 3[H]PDBu from Protein kinase C theta C1b domain.
For experiment [13], the target named is T6, Protein kinase C gamma type (Homo sapiens, UniProt P05129). Put plainly: Displacement of 3[H]PDBu from Protein kinase C gamma C1a domain.
The target of experiment [14] is T3, Protein kinase C beta type. As to the kind of experiment: Displacement of 3[H]PDBu from Protein kinase C beta C1a domain.
Experiment [15] deals with T6, Protein kinase C gamma type. As to the kind of experiment: Displacement of 3[H]PDBu from Protein kinase C gamma C1b domain.
The test system of experiment [16] is HL-60. Put plainly: (§1) Compound was tested in vitro for percent EBV0EA-inducing activity in […] cells at concentration 10e-6 M. It is filed as functional, Homo sapiens.
The test system of experiment [17] is HL-60. Put plainly: Compound was tested in vitro for its ability to induce superoxide generation in HL-60 cells at concentration 10e-7 M. It is filed as functional, Homo sapiens.
Experiment [18] relates to HL-60. Put plainly: Compound was tested in vitro for percent EBV0EA-inducing activity in […] cells at concentration 10e-8 M. It is filed as functional, Homo sapiens.
The target in experiment [19] is T2, Protein kinase C epsilon type. Put plainly: Displacement of 3[H]PDBu from Protein kinase C epsilon C1b domain.
The target of experiment [20] is T1, Protein kinase C alpha type. Put plainly: Displacement of 3[H]PDBu from Protein kinase C alpha C1a domain.
Experiment [21] addresses T5, Protein kinase C eta type. As to the kind of experiment: Displacement of 3[H]PDBu from Protein kinase C eta C1a domain.
Experiment [22] deals with HL-60. As to the kind of experiment: Compound was tested in vitro for percent EBV0EA-inducing activity in […] cells at concentration 10e-5 M. It is filed as functional, cell-based, Homo sapiens.
For experiment [23], the system named is HL-60. The experiment is described as §1. Type of experiment: functional, cell-based, Homo sapiens.

The Ki is a measure of affinity in units of concentration, obtained from inhibition or displacement. Read a low Ki as tighter binding.

T5 sequence (P24723 whole entry, the tested form may be a part): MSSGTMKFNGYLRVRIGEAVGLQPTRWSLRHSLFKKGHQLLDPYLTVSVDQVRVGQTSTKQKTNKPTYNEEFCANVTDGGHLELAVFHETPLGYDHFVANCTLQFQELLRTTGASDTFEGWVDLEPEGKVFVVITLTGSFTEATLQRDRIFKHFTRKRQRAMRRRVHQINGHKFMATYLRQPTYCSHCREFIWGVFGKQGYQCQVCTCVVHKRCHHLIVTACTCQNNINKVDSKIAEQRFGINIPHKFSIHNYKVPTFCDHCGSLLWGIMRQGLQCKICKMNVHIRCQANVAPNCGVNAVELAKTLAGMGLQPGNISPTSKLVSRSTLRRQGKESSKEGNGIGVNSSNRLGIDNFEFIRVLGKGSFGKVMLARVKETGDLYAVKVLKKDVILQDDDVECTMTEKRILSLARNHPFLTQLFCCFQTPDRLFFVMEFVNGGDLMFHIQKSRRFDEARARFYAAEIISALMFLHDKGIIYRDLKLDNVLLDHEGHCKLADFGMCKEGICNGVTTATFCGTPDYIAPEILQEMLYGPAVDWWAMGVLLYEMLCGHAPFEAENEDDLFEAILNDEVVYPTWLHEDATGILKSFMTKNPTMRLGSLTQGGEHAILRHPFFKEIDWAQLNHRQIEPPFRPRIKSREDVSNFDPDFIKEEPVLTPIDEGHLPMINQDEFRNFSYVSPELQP
T4 sequence (Q05655 whole entry, the tested form may be a part): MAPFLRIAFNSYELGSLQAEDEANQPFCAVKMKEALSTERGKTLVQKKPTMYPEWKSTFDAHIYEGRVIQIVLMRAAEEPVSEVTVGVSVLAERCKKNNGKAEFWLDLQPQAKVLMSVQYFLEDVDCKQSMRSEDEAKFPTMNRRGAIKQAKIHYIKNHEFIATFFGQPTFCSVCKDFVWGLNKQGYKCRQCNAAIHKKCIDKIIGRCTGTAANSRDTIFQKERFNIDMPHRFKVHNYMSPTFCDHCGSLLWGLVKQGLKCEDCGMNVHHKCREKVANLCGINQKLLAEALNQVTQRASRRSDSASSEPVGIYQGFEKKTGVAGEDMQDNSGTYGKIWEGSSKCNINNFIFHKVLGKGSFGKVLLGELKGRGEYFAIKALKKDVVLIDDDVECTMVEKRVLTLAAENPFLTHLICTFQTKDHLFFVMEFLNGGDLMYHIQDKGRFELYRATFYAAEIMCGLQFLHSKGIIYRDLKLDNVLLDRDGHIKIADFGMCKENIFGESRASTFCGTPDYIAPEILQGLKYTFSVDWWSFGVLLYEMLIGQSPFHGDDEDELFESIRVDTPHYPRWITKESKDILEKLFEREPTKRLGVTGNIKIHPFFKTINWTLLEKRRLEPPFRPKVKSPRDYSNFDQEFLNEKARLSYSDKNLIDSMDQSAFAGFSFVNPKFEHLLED
T3 sequence (P05771 whole entry, the tested form may be a part): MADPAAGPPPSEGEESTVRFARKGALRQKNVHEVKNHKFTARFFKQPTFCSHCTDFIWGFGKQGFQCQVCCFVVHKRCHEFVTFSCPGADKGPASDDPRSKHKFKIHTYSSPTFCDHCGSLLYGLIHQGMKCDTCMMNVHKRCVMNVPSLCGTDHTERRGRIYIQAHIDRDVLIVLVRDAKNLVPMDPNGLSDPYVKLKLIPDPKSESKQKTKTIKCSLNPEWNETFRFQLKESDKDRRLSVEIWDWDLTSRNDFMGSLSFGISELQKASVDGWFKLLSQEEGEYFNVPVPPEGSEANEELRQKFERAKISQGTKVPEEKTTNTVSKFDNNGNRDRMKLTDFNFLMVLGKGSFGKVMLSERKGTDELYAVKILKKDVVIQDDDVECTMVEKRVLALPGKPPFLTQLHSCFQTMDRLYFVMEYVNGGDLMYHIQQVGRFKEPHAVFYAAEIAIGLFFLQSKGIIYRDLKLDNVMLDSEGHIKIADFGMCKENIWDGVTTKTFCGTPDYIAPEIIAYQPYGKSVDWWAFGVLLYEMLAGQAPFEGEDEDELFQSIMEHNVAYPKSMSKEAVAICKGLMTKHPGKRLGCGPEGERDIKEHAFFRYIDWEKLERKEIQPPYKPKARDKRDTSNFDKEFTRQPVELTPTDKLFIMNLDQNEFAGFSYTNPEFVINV
Chain of Protein kinase C theta type (Q04759 whole entry, the tested form may be a part): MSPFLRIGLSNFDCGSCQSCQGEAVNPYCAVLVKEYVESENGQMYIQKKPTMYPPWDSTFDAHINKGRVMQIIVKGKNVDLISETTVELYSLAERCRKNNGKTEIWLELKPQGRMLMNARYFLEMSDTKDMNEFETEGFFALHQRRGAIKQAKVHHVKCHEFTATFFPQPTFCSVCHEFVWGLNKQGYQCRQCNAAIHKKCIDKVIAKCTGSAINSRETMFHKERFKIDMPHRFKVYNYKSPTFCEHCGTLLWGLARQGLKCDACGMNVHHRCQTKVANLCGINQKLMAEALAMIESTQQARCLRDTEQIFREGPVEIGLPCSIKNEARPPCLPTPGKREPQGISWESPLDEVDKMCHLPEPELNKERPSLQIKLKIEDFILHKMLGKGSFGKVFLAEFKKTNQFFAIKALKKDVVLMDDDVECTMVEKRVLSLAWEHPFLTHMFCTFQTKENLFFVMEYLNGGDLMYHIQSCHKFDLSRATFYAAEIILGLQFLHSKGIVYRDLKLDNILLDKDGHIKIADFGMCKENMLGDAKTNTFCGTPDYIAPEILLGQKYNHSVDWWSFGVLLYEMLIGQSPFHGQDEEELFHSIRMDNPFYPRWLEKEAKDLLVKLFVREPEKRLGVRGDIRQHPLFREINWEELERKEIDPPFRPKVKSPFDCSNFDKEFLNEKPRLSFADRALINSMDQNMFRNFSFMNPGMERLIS

In the case of `CCCC(=O)O[C@@H]1[C@@H](C)[C@]2(O)[C@@H]3C=C(C)C(=O)[C@H]3CC(CO)=C[C@H]2[C@@H]2C(C)(C)[C@]12OC(=O)CCC`, the Activity in [1] is given as 1.2%; in experiment [3] it was 31.1%; in [4], 0.11 nM min-1 (10e-6*cells)-1; in experiment [9], 3.14 nM min-1 (10e-6*cells)-1; in [11] it was 0.08 nM min-1 (10e-6*cells)-1; in [16] it was 25.6%. In addition, the Activity is 3.16 nM min-1 (10e-6*cells)-1 in experiment [17] and 7% in experiment [18]. Besides, the Ki in experiment [2] was 13.9 nM; in experiment [5] it was 4.49 nM; in experiment [6] it was 2.23 nM; in [7] it was 70.2 nM; in [8], 0.35 nM; in experiment [10], 0.55 nM. Further, the Ki in experiment [12] was 0.73 nM; in [13], 5.23 nM; in [14], 2.78 nM; in experiment [15] it was 1.84 nM; in [19] it was 0.58 nM; in experiment [20], 4.05 nM. For the same molecule, in experiment [21], the affinity corresponds to a Ki of 14.9 nM.

As for `CCCC(=O)O[C@@H]1[C@@H](C)[C@@]2(O)[C@@H](C=C(CO)C[C@]3(O)C(=O)C(C)=C[C@@H]23)[C@@H]2C(C)(C)[C@]12OC(=O)CCC`, the Activity in experiment [1] is 3.6%; in experiment [3] it was 33.1%; in experiment [4] it was 0 nM min-1 (10e-6*cells)-1; in experiment [9], 3.32 nM min-1 (10e-6*cells)-1; in experiment [11] it was 0.11 nM min-1 (10e-6*cells)-1; in experiment [16], 29.9%. Further, the results for the Activity in experiment [17] and in [18] were 3.11 nM min-1 (10e-6*cells)-1 and 10.8%, respectively.

In the case of `CCCC(=O)O[C@@H]1[C@@H](C)[C@]2(O)[C@@H]3C=C(C)C(=O)[C@@H]3CC(CO)=C[C@H]2[C@@H]2C(C)(C)[C@]12OC(=O)CCC`, the results for the Activity in experiment [9], in experiment [22] and in experiment [23] were 0.05 nM min-1 (10e-6*cells)-1, 17.9% and 2.7%, respectively.

(Values after ChEMBL document CHEMBL1134710, “The C4 hydroxyl group of phorbol esters is not necessary for protein kinase C binding” (Bioorg Med Chem Lett, 2001).)
